Test: Stability of compound (observation)
Type: physicochemical
Conditions: must be used immediately in coupling with polymer

## CC(=S)NC1C(O)CC(OCc2ccc(NC(=S)CN)cc2)(C(=O)O)OC1C(O)C(O)CO [VIII, p-thioglycylamidobenzyl 3,5-dideoxy-5-thioacetamido-α-D-glycero-D-galacto-nonulopyranosidonic acid]
  Stability: unstable

Reference: US5571836A, “Viral attachment inhibitors” (priority 1995, dated 1996)
